How the values were obtained:
[1] = cited from earlier work
[2] = T1 black-blood MRI: percentage change in normalized signal units in CSF and parasagittal dura after intrathecal gadobutrol, cohort of 18 individuals (FIG. 23g-w); assay type: in vivo, human
From the text: It has for long been an unanswered question how a molecular substance escapes from the CSF of the craniospinal compartment to the dural lymphatics and further to extracranial lymph nodes in humans. Experimental studies in animals have indicated a role of lymphatic vessels in dura mater, but this has yet to be shown in human subjects. The present invention addresses removal of molecular substances from the craniospinal compartment in humans. Basis for the various aspects of the invention are novel observations made by the inventors regarding transport of indicator fluids from CSF to lymphatic structures in dura. The inventors have provided novel observations using time series of MRI T1 black-blood sequences after intrathecal administration of the MRI contrast agent gadobutrol. […]
FIG. 23o-s illustrate the determination of signal unit ratios, which is particularly useful when measuring indication signals from MRI. Enrichment of indicator fluid is measured as change in T1-BB signal units. […] The enrichment of CSF tracer is quantified as change in signal units (SU) within the regions of interest that are marked by an open circle. The measured signal units were normalized against the reference to correct for any baseline shift of image greyscale between time points. […]

- Time of peak signal change (normalized T1-BB signal units) ([2]; CSF nearby parasagittal dura): 24 h
- Time of peak signal change (normalized T1-BB signal units) ([2]; parasagittal dura): 24 h
Compound: O=C([O-])CN1CCN(CC(=O)[O-])CCN([C@H](CO)[C@H](O)CO)CCN(CC(=O)[O-])CC1.[Gd+3] (racemic) [gadobutrol]
- Half-time of gadobutrol in blood [1]: about 1.8 hours

— patent publication US11272841B2, “Indicator fluids, systems, and methods for assessing movement of substances within, to or from a cerebrospinal fluid, brain or spinal cord compartment of a cranio-spinal cavity of a human” (BRAINWIDESOLUTIONS AS, priority 2017, dated 2022)
